Data: patent US7157482B2, “Antibacterial 1,3-oxazolidin-2-one derivatives” (AstraZeneca AB, priority 2003, dated 2007)
pKi: −log10 of the molar value. In brackets after ≈: the same amount, converted by molar mass.

Legend:
[1] = biological target: T1, MAO-A (Homo sapiens, UniProt P21397); experiment: MAO-A in-vitro assay, human liver enzyme expressed in yeast; type: biochemical
T1 construct: made in house; host or cells: yeast
T1 sequence (P21397 1-527): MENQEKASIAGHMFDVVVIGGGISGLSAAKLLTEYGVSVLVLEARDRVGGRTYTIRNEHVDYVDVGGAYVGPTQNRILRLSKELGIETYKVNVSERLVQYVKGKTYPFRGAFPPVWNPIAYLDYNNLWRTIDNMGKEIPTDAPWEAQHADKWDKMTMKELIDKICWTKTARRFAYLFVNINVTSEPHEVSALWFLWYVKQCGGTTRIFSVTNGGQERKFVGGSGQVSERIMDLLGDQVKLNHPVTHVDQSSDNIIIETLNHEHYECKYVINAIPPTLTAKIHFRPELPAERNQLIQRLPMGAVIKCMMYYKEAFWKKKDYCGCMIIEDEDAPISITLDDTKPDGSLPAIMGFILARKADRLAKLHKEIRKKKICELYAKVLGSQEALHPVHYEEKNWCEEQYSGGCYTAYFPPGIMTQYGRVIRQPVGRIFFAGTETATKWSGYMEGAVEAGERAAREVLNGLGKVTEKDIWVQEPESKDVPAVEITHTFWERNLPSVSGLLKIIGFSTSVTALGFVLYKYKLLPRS
Description: The activity of the compounds of the invention against MAO-A was tested using a standard in-vitro assay based on human liver enzyme expressed in yeast as described in Biochem. Biophys. Res. Commun. 1991, 181, 1084–1088.

[2] = test system: Streptococcus pneumoniae; experiment: MIC, agar-dilution, Streptococcus pneumoniae; type: cell-based; details: agar with 5% defibrinated horse blood, 10^4 CFU/spot, 37° C., 5% carbon dioxide, 48 hours
Description: (§1) The following results were obtained on a standard in-vitro test system. The activity is described in terms of the minimum inhibitory concentration (MIC) determined by the agar-dilution technique with an inoculum size of 10^4 CFU/spot. Typically, compounds are active in the range 0.01 to 256 μg/ml.
(§2) Streptococci and enterococci were tested on agar supplemented with 5% defibrinated horse blood, an inoculum of 10^4 CFU/spot and an incubation temperature of 37° C. in an atmosphere of 5% carbon dioxide for 48 hours—blood is required for the growth of some of the test organisms. Fastidious Gram negative organisms were tested in Mueller-Hinton broth, supplemented with hemin and NAD, grown aerobically for 24 hours at 37° C., and with an innoculum of 5×10^4 CFU/well.

[3] = test system: Staphylococcus aureus MSQS (methicillin sensitive and quinolone sensitive); experiment: MIC, agar-dilution, Staphylococcus aureus MSQS; type: cell-based; details: S. aureus MSQS, inoculum 10^4 CFU/spot, 37° C., 24 hours
Description: as §1
(§3) Staphylococci were tested on agar, using an inoculum of 10^4 CFU/spot and an incubation temperature of 37° C. for 24 hours—standard test conditions for the expression of methicillin resistance.

[4] = test system: Staphylococcus aureus MRQR (methicillin resistant and quinolone resistant); experiment: MIC, agar-dilution, Staphylococcus aureus MRQR; type: cell-based; details: S. aureus MRQR, inoculum 10^4 CFU/spot, 37° C., 24 hours
Description: as §1, §3

[5] = test system: Moraxella catarrhalis; experiment: MIC, Moraxella catarrhalis; type: cell-based; details: fastidious Gram negative: Mueller-Hinton broth with hemin and NAD, 24 hours, 37° C., 5×10^4 CFU/well
Description: as §1, §2

[6] = test system: Enterococcus faecium; experiment: MIC, agar-dilution, Enterococcus faecium; type: cell-based; details: agar with 5% defibrinated horse blood, 10^4 CFU/spot, 37° C., 5% carbon dioxide, 48 hours
Description: as §1, §2

Structure (SMILES) | pKi [1] | MIC [2] [µg/mL] | MIC [3] [µg/mL] | MIC [4] [µg/mL] | MIC [5] [µg/mL] | MIC [6] [µg/mL]
Cc1cn(C[C@H]2CN(c3ccc(-c4cc(C)no4)c(F)c3)C(=O)O2)nn1 [Example 1, (5R)-3-[3-Fluoro-4-(3-methylisoxazol-5-yl)phenyl]-5-[(4-methyl-1H-1,2,3-triazol-1-yl)methyl]-1,3-oxazolidin-2-one] | 4.23 | 0.5 (≈ 1.4 µM) | 4 (≈ 11.2 µM) | 1 (≈ 2.8 µM) | 1 (≈ 2.8 µM) | 1 (≈ 2.8 µM)
Cc1cc(-c2ccc(N3C[C@H](Cn4ccnn4)OC3=O)cc2F)on1 [unsubstituted triazole equivalent, reference compound] | 5.16 | – | – | – | – | –
